Test system: cancer cells
Assay: MTT cytotoxic assay of esterification products (Cytotoxicity activity)
Format: cell-based, human
How it was run: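 Cytotoxicity was read by MTT (Carmichael method, modified), with cells seeded 24 h ahead of treatment. Sixteen human cancer lines spanning bone, lung, bladder, ovary, colon, pancreas, prostate, skin, mouth, kidney, breast, liver, brain, leukemia and cervix were used. Test samples were acyl chloride esterification products of triterpenes, as mixtures or HPLC-purified compounds.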

[1] = E4A esterified with Acetyl chloride (Acy = Acetyl), compounds isolated with HPLC
[2] = esterification products isolated with HPLC, graded strong / moderate / weak
[3] = E4A esterified with 2-propenoyl chloride (Ppe = Propenoyl), compounds isolated with HPLC
[4] = E4A esterified with Propionyl chloride (Ppi = Propionyl), compounds isolated with HPLC
[5] = E4A esterified with benzoyl chloride (Ben = benzoyl), compounds isolated with HPLC
[6] = esterification products of core compound E4A with (2E)-2-pentenoyl chloride (2pe = 2-pentenoyl)
[7] = esterification products of core compound E4A with Butyryl chloride (But = Butyryl)
[8] = esterification products of core compound E4A with Decanoyl chloride (Dec = Decanoyl)
[9] = esterification products of core compound E4A with Isobutyryl chloride (Iso = Isobutyryl)
[10] = esterification products of core compound E4A with Myristoyl chloride (Myr = Myristoyl)
[11] = esterification products of core compound E4A with Octanoyl chloride (Oct = Octanoyl)
[12] = MTT cytotoxic assay, isolated esterification products of E4A

CC(=O)OCC1(C)C(O)CCC2(C)C1CCC1(C)C2CC=C2C3CC(C)(C)C(OC(C)=O)C(OC(C)=O)C3(CO)C(O)CC21C (stereo not drawn) [Compound H21]
Cytotoxicity activity [1]: moderate

CC=CC(=O)OC1C(O)C2(CO)C(O)CC3(C)C(=CCC4C5(C)CCC(O)C(C)(COC(=O)C(C)=CC)C5CCC43C)C2CC1(C)C (stereo not drawn) [Tig—Cro—5]
Cytotoxicity activity [2]: moderate

CC1(C)CC2C3=CCC4C5(C)CCC(O)C(C)(CO)C5CCC4(C)C3(C)CC(O)C2(COC(=O)c2ccccc2)C(OC(=O)c2ccccc2)C1O (stereo not drawn) [Compound K26]
Cytotoxicity activity [3]: moderate | Cytotoxicity activity [4]: moderate | Cytotoxicity activity [5]: moderate | Cytotoxicity activity [6]: moderate | Cytotoxicity activity [7]: moderate | Cytotoxicity activity [8]: moderate | Cytotoxicity activity [9]: moderate | Cytotoxicity activity [10]: moderate | Cytotoxicity activity [11]: moderate

CCC(CC)C(=O)OCC1(C)C(O)CCC2(C)C1CCC1(C)C2CC=C2C3CC(C)(C)C(OC(=O)C(CC)CC)C(O)C3(COC(=O)C(CC)CC)C(O)CC21C (stereo not drawn) [Compound E4]
Cytotoxicity activity [12]: moderate

CC=C(C)C(=O)OCC1(C)C(OC(C)=O)CCC2(C)C1CCC1(C)C2CC=C2C3CC(C)(C)C(O)C(OC(C)=O)C3(COC(=O)C(C)=CC)C(O)CC21C (stereo not drawn) [Tig—R—Acy—6]
Cytotoxicity activity [2]: weak

CCC(CC)C(=O)OCC1(C)C(O)CCC2(C)C1CCC1(C)C2CC=C2C3CC(C)(C)C(O)C(O)C3(COC(=O)C(CC)CC)C(O)CC21C (stereo not drawn) [Compound E3]
Cytotoxicity activity [12]: strong

CCC(CC)C(=O)OCC1(C)C(OC(=O)C(CC)CC)CCC2(C)C1CCC1(C)C2CC=C2C3CC(C)(C)C(O)C(OC(=O)C(CC)CC)C3(COC(=O)C(CC)CC)C(O)CC21C (stereo not drawn) [Compound E9]
Cytotoxicity activity [12]: weak

CCCCCC(=O)OC1C(OC(=O)CCCCC)C2(CO)C(OC(=O)CCCCC)CC3(C)C(=CCC4C5(C)CCC(O)C(C)(CO)C5CCC43C)C2CC1(C)C (stereo not drawn) [Compound D22]
Cytotoxicity activity [12]: moderate

CC(=O)OCC12C(OC(C)=O)CC3(C)C(=CCC4C5(C)CCC(O)C(C)(CO)C5CCC43C)C1CC(C)(C)C(O)C2O (stereo not drawn) [Compound H28]
Cytotoxicity activity [1]: moderate

CC=CC(=O)OC1C(O)C(C)(C)CC2C3=CCC4C5(C)CCC(O)C(C)(COC(=O)C(C)=CC)C5CCC4(C)C3(C)CC(O)C21CO (stereo not drawn) [Tig—Cro—6]
Cytotoxicity activity [2]: moderate

CC(C)=CC(=O)OCC1(C)C(O)CCC2(C)C1CCC1(C)C2CC=C2C3CC(C)(C)C(OC(=O)C=C(C)C)C(O)C3(COC(=O)C=C(C)C)C(OC(=O)C=C(C)C)CC21C (stereo not drawn) [Compound B13]
Cytotoxicity activity [12]: weak

CC1(C)CC2C3=CCC4C5(C)CCC(O)C(C)(CO)C5CCC4(C)C3(C)CC(O)C2(COC(=O)c2ccccc2)C(O)C1OC(=O)c1ccccc1 (stereo not drawn) [Compound K25]
Cytotoxicity activity [3]: moderate | Cytotoxicity activity [4]: moderate | Cytotoxicity activity [5]: moderate | Cytotoxicity activity [6]: moderate | Cytotoxicity activity [7]: moderate | Cytotoxicity activity [8]: moderate | Cytotoxicity activity [9]: moderate | Cytotoxicity activity [10]: moderate | Cytotoxicity activity [11]: moderate

CC(C)=CC(=O)OCC1(C)C(O)CCC2(C)C1CCC1(C)C2CC=C2C3CC(C)(C)C(O)C(O)C3(COC(=O)C=C(C)C)C(O)CC21C (stereo not drawn) [Compound B3]
Cytotoxicity activity [12]: strong

CC=CC(=O)OCC1(C)C(O)CCC2(C)C1CCC1(C)C2CC=C2C3CC(C)(C)C(O)C(O)C3(COC(=O)C=CC)C(OC(=O)C=CC)CC21C (stereo not drawn) [Compound I7]
Cytotoxicity activity (E4A esterified with Crotonoyl chloride (Cro = Crotonoyl), compounds isolated with HPLC): moderate

CC1(C)CC2C3=CCC4C5(C)CCC(OC(=O)c6ccccc6)C(C)(COC(=O)c6ccccc6)C5CCC4(C)C3(C)CC(O)C2(CO)C(O)C1O (stereo not drawn) [Compound K31]
Cytotoxicity activity [3]: moderate | Cytotoxicity activity [4]: moderate | Cytotoxicity activity [5]: moderate | Cytotoxicity activity [6]: moderate | Cytotoxicity activity [7]: moderate | Cytotoxicity activity [8]: moderate | Cytotoxicity activity [9]: moderate | Cytotoxicity activity [10]: moderate | Cytotoxicity activity [11]: moderate

CC(C)=CC(=O)OCC1(C)C(OC(=O)C=C(C)C)CCC2(C)C1CCC1(C)C2CC=C2C3CC(C)(C)C(O)C(O)C3(COC(=O)C=C(C)C)C(OC(=O)C=C(C)C)CC21C (stereo not drawn) [Compound B10]
Cytotoxicity activity [12]: weak

C=CCCC(=O)OCC12C(O)CC3(C)C(=CCC4C5(C)CCC(O)C(C)(CO)C5CCC43C)C1CC(C)(C)C(O)C2O (stereo not drawn) [Compound C2]
Cytotoxicity activity [12]: moderate

CC(C)=CC(=O)OCC1(C)C(OC(=O)C=C(C)C)CCC2(C)C1CCC1(C)C2CC=C2C3CC(C)(C)C(O)C(OC(=O)C=C(C)C)C3(COC(=O)C=C(C)C)C(O)CC21C (stereo not drawn) [Compound B14]
Cytotoxicity activity [12]: weak
